{
  "source": "patent US20200268847A1",
  "about": "“Methods of Treating Newly Diagnosed Multiple Myeloma with a Combination of An Antibody that Specifically Binds CD38, Lenalidomide and Dexamethasone” (Janssen Biotech, Inc., priority 2019, published 2020)",
  "key": {"[1]": {"test_system": "newly diagnosed multiple myeloma, patients ineligible for HDC and ASCT", "test": "Phase 3 MAIA study (NCT02252172), interim analysis: progression-free survival, response by IMWG criteria, survival", "assay_type": "in vivo, human", "method": "Subject participation will include a Screening Phase, a Treatment Phase, and a Follow-up Phase. The Screening Phase will be up to 21 days before Cycle 1, Day 1. The Treatment Phase will extend from Day 1 of Cycle 1 until discontinuation of all study treatment. […] This will equate to […] of dosing at the start of the study and a total of 23 doses in the first year. Lenalidomide will be administered at a dose of 25 mg orally (PO) on Days 1 through 21 of each 28-day cycle, and dexamethasone will be administered at a dose of 40 mg once a week. Subjects in both treatment arms will continue lenalidomide and dexamethasone until disease progression or unacceptable toxicity. […] Randomization will be stratified by International Staging System (I vs II vs III), region (North America vs Other), and age (<75 vs >75), using an equal allocation ratio of 1:1.\nThe primary endpoint is PFS, which is defined as the duration from the date of randomization to either progressive disease, or death, whichever occurs first. Disease progression will be determined according to the IMWG criteria.\nThe secondary efficacy endpoints include: • Time to disease progression (TTP) is defined as the time from the date of randomization to the date of first documented evidence of PD, as defined in the IMWG criteria. […] Disease progression will be based on investigator judgment. For those subjects who are still alive and not yet progressed on the next line of treatment, they will be censored on the last date of follow-up. • Overall survival (OS), measured from the date of randomization to the date of the subject's death. […] For subjects without response, data will be censored either at the date of progressive disease or, in the absence of progressive disease, at the last disease evaluation before the start of subsequent anti-myeloma therapy. • Duration of response, calculated from the date of initial documentation of a response (PR or better) to the date of first documented evidence of progressive disease, as defined in the IMWG criteria. For subjects who have not progressed, data will be censored at the last disease evaluation before the start of any subsequent anti-myeloma therapy. • To evaluate clinical efficacy of DRd in high risk molecular subgroups compared to Rd alone. • To evaluate the impact of DRd compared to Rd on patient-reported perception of global health.\nDisease evaluations will be performed by a central laboratory (unless otherwise specified). This study will use the IMWG consensus recommendations for multiple myeloma treatment response criteria (Durie et al., Leukemia, 20:[…], 2006, Rajkumar et al., Blood, 117:4691-4695, 2011) presented in Table 1. For quantitative immunoglobulin, M-protein, and immunofixation measurements in serum and 24 hour urine, the investigator will use results provided by the central laboratory.\nThe primary endpoint was progression-free survival. The study protocol is described in Example 1.\nPatients were stratified by International Staging System (ISS; I vs. II vs. III), region (North America vs. Other), and age (<75 years vs. >75 years).\nDuring each 28-day cycle, all patients received oral lenalidomide (25 mg, Days 1-21) and oral dexamethasone (40 mg, Days 1, 8, 15, and 22) until disease progression or unacceptable toxicity. For patients older than 75 years of age or with body mass index less than 18.5 kg/m^2, dexamethasone was administered at a dose of 20 mg once weekly. […] Pre-infusion medications were administered to manage infusion reactions.\nThe primary endpoint was progression-free survival (time from date of randomization to either disease progression or death)."}, "[2]": {"test_system": "transplant-ineligible newly diagnosed multiple myeloma (NDMM)", "test": "MAIA subgroup analysis by age (<75 vs ≥75 y): efficacy", "assay_type": "in vivo, human", "settings": "for PFS HR (95% CI): DRd vs Rd", "method": "(§1) To examine the impact of age on the efficacy and safety of D-Rd vs Rd in this patient population, a subgroup analysis was conducted within patients <75 and >75 y of age.\n(§2) Transplant-ineligible NDMM patients were randomized 1:1 to Rd±DARA; stratification was based on age (<75 vs >75 years), ISS (I, II, III), and region (North America vs Other). In standard Rd dosing, patients received 28-day cycles of lenalidomide 25 mg PO QD on Days 1-21 and dexamethasone 40 mg PO on Days 1, 8, 15 and 22 until progression. A portion of patients received 10 mg lenalidomide and 20 mg dexamethasone at the beginning of the treatment. In the DRd arm, patients received daratumumab (DARZALEX®) 16 mg/kg IV QW for Cycles 1-2, Q2W for Cycles 3-6, and Q4W thereafter until progression. PFS was the primary endpoint."}, "[3]": {"test_system": "transplant-ineligible NDMM patients", "test": "MAIA subgroup analysis by age (<75 vs >75 y): safety (TEAEs, discontinuations)", "assay_type": "in vivo, human", "method": "as §1, §2"}, "[4]": {"test_system": "patients with newly diagnosed multiple myeloma ineligible for HDC and ASCT", "settings": "in vivo", "text": "Safety will be measured by adverse events, laboratory test results, ECGs, vital sign measurements, physical examination findings, and assessment of ECOG performance status score.\nSafety analyses included adverse event assessment graded in severity according to NCI-CTCAE version 4, electrocardiograms, clinical laboratory testing, physical examinations, and vital signs.\nThe safety population included patients who received any dose of trial treatment."}, "[5]": {"settings": "ITT population, median follow-up 28.0 months"}, "[6]": {"settings": "grade 3/4 TEAEs, <75 y patients"}, "[7]": {"settings": "grade 3/4 TEAEs, >75 y patients"}},
  "data": [
    {"substance": "daratumumab (DARZALEX®) group: daratumumab (DARZALEX®) in combination with lenalidomide and dexamethasone", "values": [
      {"measurement": "events of progression or death while receiving the next line of therapy", "setting": "[1]; 155 events in total", "result": 68, "unit": "patients"},
      {"measurement": "patients with disease progression events (time-to-event analysis of disease progression)", "setting": "[1]; 179 events in total", "result": 17.9, "unit": "%"},
      {"measurement": "reduction of the risk of progression or death", "setting": "[1]; DRd vs Rd, primary analysis of MAIA", "result": 44, "unit": "%"},
      {"measurement": "Kaplan-Meier estimate of the 30-month rate of progression-free survival", "setting": "[1]; ITT population", "result": 70.6, "unit": "%"},
      {"measurement": "median time to progression", "setting": "[1]; ITT population", "result": "not being reached"},
      {"measurement": "Overall response: No. with response", "setting": "[1]; ITT population (N = 368 vs 369), median follow-up 28.0 months", "result": 342},
      {"measurement": "median overall survival", "setting": "[1]; ITT population, long-term follow-up ongoing", "result": "not reached"},
      {"measurement": "median progression-free survival", "setting": "[1]; ITT population, median follow-up 28 months", "result": "not reached"},
      {"measurement": "Best overall response: Complete response", "setting": "[1]; [5]", "result": "63 (17.1) no. (%)"},
      {"measurement": "Best overall response: Complete response or better", "setting": "[1]; [5]", "result": "175 (47.6) no. (%)"},
      {"measurement": "Best overall response: Partial response", "setting": "[1]; [5]", "result": "50 (13.6) no. (%)"},
      {"measurement": "Best overall response: Progressive disease", "setting": "[1]; [5]", "result": "1 (0.3) no. (%)"},
      {"measurement": "Best overall response: Response could not be evaluated", "setting": "[1]; [5]", "result": "14 (3.8) no. (%)"},
      {"measurement": "Best overall response: Stringent complete response", "setting": "[1]; [5]", "result": "112 (30.4) no. (%)"},
      {"measurement": "Best overall response: Very good partial response", "setting": "[1]; [5]", "result": "117 (31.8) no. (%)"},
      {"measurement": "Best overall response: Very good partial response or better", "setting": "[1]; [5]", "result": "292 (79.3) no. (%)"},
      {"measurement": "Overall response rate", "setting": "[1]; [5]", "result": 92.9, "unit": "%"},
      {"measurement": "rate of complete response or better", "setting": "[1]; ITT population, P<0.0001", "result": 47.6, "unit": "%"},
      {"measurement": "rate of very good partial response or better", "setting": "[1]; ITT population, P<0.0001", "result": 79.3, "unit": "%"},
      {"measurement": "treatment discontinued due to progressive disease", "setting": "[1]; at clinical cutoff date Sep. 24, 2018", "result": 14.6, "unit": "%"},
      {"measurement": "36-month rate of progression-free survival 2", "setting": "[1]; in vivo", "result": 77.1, "unit": "%"},
      {"measurement": "median duration of response", "setting": "[1]; in vivo", "result": "not reached"},
      {"measurement": "median time to complete response or better", "setting": "[1]; in vivo", "result": 10.4, "unit": "months"},
      {"measurement": "median time to first response among responders", "setting": "[1]; in vivo", "result": 1.05, "unit": "months"},
      {"measurement": "patients with events of disease progression or death", "setting": "[1]; median follow-up 28.0 months, 240 events in total", "result": 26.4, "unit": "%"},
      {"measurement": "deaths", "setting": "[1]; number of deaths, 138 in total, median follow-up 28.0 months", "result": 62},
      {"measurement": "median progression-free survival 2", "setting": "[1]; progression on next line of therapy or death", "result": "not reached"},
      {"measurement": "30-mo PFS", "setting": "[2]; <75 y", "result": 75, "unit": "%"},
      {"measurement": "MRD-negative rate (10^−5)", "setting": "[2]; <75 y", "result": 28, "unit": "%"},
      {"measurement": "ORR", "setting": "[2]; <75 y", "result": 95, "unit": "%"},
      {"measurement": "≥CR", "setting": "[2]; <75 y", "result": 52, "unit": "%"},
      {"measurement": "≥VGPR", "setting": "[2]; <75 y", "result": 81, "unit": "%"},
      {"measurement": "PFS HR (95% CI)", "setting": "[2]; <75 y, listed as D-Rd", "result": 0.50},
      {"measurement": "PFS HR (95% CI)", "setting": "[2]; <75 y, listed as DRd", "result": "0.50 (0.35-0.71)"},
      {"measurement": "PFS Median", "setting": "[2]; <75 y, median follow-up 28 months, listed as D-Rd", "result": "not reached"},
      {"measurement": "30-mo PFS", "setting": "[2]; ≥75 y", "result": 66, "unit": "%"},
      {"measurement": "MRD-negative rate (10^−5)", "setting": "[2]; ≥75 y", "result": 19, "unit": "%"},
      {"measurement": "ORR", "setting": "[2]; ≥75 y", "result": 90, "unit": "%"},
      {"measurement": "≥CR", "setting": "[2]; ≥75 y", "result": 41, "unit": "%"},
      {"measurement": "≥VGPR", "setting": "[2]; ≥75 y", "result": 77, "unit": "%"},
      {"measurement": "PFS HR (95% CI)", "setting": "[2]; ≥75 y, listed as D-Rd", "result": 0.63},
      {"measurement": "PFS HR (95% CI)", "setting": "[2]; ≥75 y, listed as DRd", "result": "0.63 (0.44-0.92)"},
      {"measurement": "discontinuation rate due to infections", "setting": "[3]; <75 y", "result": 1, "unit": "%"},
      {"measurement": "discontinued lenalidomide due to TEAEs", "setting": "[3]; <75 y", "result": 15, "unit": "%"},
      {"measurement": "discontinued treatment due to TEAEs", "setting": "[3]; <75 y", "result": 5, "unit": "%"},
      {"measurement": "discontinuation rate due to infections", "setting": "[3]; >75 y", "result": 0, "unit": "%"},
      {"measurement": "discontinued lenalidomide due to TEAEs", "setting": "[3]; >75 y", "result": 29, "unit": "%"},
      {"measurement": "discontinued treatment due to TEAEs", "setting": "[3]; >75 y", "result": 10, "unit": "%"},
      {"measurement": "anemia", "setting": "[3]; [6]", "result": 9, "unit": "%"},
      {"measurement": "leukopenia", "setting": "[3]; [6]", "result": 10, "unit": "%"},
      {"measurement": "lymphopenia", "setting": "[3]; [6]", "result": 12, "unit": "%"},
      {"measurement": "neutropenia", "setting": "[3]; [6]", "result": 43, "unit": "%"},
      {"measurement": "pneumonia", "setting": "[3]; [6]", "result": 13, "unit": "%"},
      {"measurement": "anemia", "setting": "[3]; [7]", "result": 16, "unit": "%"},
      {"measurement": "leukopenia", "setting": "[3]; [7]", "result": 12, "unit": "%"},
      {"measurement": "lymphopenia", "setting": "[3]; [7]", "result": 19, "unit": "%"},
      {"measurement": "neutropenia", "setting": "[3]; [7]", "result": 60, "unit": "%"},
      {"measurement": "pneumonia", "setting": "[3]; [7]", "result": 15, "unit": "%"},
      {"measurement": "thrombocytopenia", "setting": "[3]; [7]", "result": 8, "unit": "%"},
      {"measurement": "discontinuation of trial treatment due to infections", "setting": "[4]", "result": 0.5, "unit": "%"},
      {"measurement": "rate of any-grade infections", "setting": "[4]", "result": 86.3, "unit": "%"},
      {"measurement": "rate of grade 3 or 4 infections", "setting": "[4]", "result": 32.1, "unit": "%"}
    ]}
  ]
}
